Active and inactive are the calls of the source. The rule behind the calls is not given here.
Tests used:
[1] = molecular target: Phosphatidylinositol 4,5-bisphosphate 3-kinase catalytic subunit beta isoform (Homo sapiens, UniProt P42338); experiment: Inhibition of PI3Kbeta (unknown origin) expressed in baculovirus expression system by kinase-glo luminescence assay
[2] = molecular target: Phosphatidylinositol 4,5-bisphosphate 3-kinase catalytic subunit alpha isoform (Homo sapiens, UniProt P42336); experiment: Inhibition of PI3Kalpha (unknown origin) expressed in baculovirus expression system by kinase-glo luminescence assay
[3] = molecular target: T1, Phosphatidylinositol 4,5-bisphosphate 3-kinase catalytic subunit delta isoform (Homo sapiens, UniProt O00329); experiment: Inhibition of PI3Kdelta (unknown origin) expressed in baculovirus expression system by kinase-glo luminescence assay
T1 sequence (O00329 whole entry): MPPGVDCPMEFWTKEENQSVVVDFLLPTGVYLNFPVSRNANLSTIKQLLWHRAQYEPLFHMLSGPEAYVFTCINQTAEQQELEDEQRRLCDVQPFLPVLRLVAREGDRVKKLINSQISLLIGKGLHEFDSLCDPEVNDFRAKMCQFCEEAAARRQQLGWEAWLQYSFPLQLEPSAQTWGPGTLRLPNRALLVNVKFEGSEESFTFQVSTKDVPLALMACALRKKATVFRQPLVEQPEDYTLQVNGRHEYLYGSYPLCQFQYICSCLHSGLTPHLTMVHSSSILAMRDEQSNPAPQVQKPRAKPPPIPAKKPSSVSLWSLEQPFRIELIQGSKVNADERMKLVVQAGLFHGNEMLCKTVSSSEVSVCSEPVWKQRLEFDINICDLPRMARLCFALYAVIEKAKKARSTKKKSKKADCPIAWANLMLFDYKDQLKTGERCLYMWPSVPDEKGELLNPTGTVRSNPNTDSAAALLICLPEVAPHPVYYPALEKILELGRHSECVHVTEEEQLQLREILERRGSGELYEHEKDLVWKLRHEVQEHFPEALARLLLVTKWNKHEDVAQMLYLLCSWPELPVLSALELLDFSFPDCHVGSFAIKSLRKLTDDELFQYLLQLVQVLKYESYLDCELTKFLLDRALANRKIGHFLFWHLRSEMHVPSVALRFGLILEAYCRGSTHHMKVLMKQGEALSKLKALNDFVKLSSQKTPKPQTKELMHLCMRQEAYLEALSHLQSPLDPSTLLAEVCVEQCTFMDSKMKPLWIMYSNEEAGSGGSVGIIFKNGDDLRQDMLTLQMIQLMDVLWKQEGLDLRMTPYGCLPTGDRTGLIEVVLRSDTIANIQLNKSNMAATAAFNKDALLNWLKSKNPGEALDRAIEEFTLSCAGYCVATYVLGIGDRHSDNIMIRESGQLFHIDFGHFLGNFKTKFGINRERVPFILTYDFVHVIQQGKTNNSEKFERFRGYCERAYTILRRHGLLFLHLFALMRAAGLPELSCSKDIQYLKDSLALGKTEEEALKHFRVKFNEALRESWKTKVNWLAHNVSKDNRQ

[4] = molecular target: Phosphatidylinositol 4,5-bisphosphate 3-kinase catalytic subunit gamma isoform (Homo sapiens, UniProt P48736); experiment: Inhibition of PI3Kgamma (unknown origin) expressed in baculovirus expression system by kinase-glo luminescence assay
[5] = molecular target: Phosphatidylinositol 4,5-bisphosphate 3-kinase catalytic subunit delta isoform (Homo sapiens, UniProt O00329, N836D); experiment: Inhibition of PI3Kdelta N836D mutant (unknown origin) expressed in Sf21 cells co-expressing p85 by kinase-glo luminescence assay
[6] = molecular target: T2, Phosphatidylinositol 4,5-bisphosphate 3-kinase catalytic subunit delta isoform (Homo sapiens) (UniProt O00329); experiment: Inhibition of PI3Kdelta in human NAMALWA cells assessed as suppression of Akt S473 phosphorylation levels at […] after 2 hrs by Western blot analysis; format: cell-based
T2 sequence (whole entry): T1 sequence (O00329 whole entry)

[7] = Inhibition of PI3Kbeta D862 mutant (unknown origin) expressed in baculovirus expression system by kinase-glo luminescence assay; set-up: species or system Homo sapiens
[8] = organism: Homo sapiens; experiment: Selectivity ratio of IC50 for PI3Kdelta N836D mutant (unknown origin) expressed in Sf21 cells to IC50 for wild type PI3Kdelta (unknown origin) expressed in baculovirus expression system
[9] = Inhibition of PI3Kalpha Q859D mutant (unknown origin) expressed in baculovirus expression system by kinase-glo luminescence assay; set-up: species or system Homo sapiens
[10] = organism: Homo sapiens; experiment: Selectivity ratio of IC50 for wild type PI3Kbeta (unknown origin) expressed in baculovirus expression system to IC50 for PI3Kbeta D862 mutant (unknown origin) expressed in baculovirus expression system

Phosphatidylinositol 4,5-bisphosphate 3-kinase catalytic subunit alpha isoform, sequence (P42336 whole entry, canonical isoform): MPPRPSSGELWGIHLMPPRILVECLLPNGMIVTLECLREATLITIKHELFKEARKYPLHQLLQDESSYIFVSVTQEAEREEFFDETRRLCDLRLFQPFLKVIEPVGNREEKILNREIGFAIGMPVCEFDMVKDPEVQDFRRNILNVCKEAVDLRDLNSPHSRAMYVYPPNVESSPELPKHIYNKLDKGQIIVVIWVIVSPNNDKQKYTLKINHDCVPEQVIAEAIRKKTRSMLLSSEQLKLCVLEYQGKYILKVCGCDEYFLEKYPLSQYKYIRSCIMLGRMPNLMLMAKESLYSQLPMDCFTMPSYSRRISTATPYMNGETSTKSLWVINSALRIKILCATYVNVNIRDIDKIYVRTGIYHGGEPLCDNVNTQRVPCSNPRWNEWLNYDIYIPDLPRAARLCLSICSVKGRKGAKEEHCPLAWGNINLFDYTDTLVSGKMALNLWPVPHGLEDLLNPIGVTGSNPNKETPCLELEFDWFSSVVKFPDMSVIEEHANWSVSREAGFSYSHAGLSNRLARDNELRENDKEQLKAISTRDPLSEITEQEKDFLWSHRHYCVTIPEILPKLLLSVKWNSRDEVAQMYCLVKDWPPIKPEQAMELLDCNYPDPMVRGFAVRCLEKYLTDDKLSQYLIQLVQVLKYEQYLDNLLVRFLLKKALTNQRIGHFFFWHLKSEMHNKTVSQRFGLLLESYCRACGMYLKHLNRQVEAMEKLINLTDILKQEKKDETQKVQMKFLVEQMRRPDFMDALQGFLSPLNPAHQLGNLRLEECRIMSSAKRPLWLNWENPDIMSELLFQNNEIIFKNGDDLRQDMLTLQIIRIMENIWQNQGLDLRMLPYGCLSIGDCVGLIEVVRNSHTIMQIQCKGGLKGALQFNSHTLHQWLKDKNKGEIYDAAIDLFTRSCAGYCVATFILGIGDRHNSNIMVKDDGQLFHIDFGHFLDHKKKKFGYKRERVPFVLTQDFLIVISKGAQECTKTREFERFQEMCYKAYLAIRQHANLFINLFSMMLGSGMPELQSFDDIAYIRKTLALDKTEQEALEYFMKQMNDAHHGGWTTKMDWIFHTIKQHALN
Phosphatidylinositol 4,5-bisphosphate 3-kinase catalytic subunit beta isoform, sequence (P42338 whole entry, canonical isoform): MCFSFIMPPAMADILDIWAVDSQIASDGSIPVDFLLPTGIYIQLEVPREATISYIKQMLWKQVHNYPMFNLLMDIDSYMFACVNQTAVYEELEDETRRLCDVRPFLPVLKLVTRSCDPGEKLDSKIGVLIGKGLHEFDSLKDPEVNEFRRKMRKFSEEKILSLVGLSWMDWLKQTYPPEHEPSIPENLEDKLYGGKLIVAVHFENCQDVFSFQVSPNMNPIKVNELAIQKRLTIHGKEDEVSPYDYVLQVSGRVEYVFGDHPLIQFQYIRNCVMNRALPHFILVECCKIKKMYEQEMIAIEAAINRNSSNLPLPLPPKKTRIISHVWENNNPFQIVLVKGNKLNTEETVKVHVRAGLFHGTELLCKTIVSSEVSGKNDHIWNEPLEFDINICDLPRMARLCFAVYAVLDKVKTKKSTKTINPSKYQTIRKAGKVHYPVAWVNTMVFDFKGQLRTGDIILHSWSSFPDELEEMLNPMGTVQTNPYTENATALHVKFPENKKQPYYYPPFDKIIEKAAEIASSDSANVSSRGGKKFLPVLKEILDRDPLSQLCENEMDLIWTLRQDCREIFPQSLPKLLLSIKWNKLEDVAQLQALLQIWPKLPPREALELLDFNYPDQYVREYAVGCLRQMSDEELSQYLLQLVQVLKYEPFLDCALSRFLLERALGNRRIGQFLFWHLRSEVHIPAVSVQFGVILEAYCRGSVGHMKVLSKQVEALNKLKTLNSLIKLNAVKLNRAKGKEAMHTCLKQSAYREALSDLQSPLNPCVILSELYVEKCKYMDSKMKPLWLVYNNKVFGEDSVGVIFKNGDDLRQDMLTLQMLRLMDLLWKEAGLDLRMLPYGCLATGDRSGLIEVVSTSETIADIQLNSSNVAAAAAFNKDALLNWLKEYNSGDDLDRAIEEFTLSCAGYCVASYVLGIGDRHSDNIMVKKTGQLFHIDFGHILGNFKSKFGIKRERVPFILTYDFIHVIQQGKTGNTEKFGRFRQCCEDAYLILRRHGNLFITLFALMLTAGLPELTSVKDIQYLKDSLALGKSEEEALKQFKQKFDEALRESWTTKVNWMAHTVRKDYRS
Phosphatidylinositol 4,5-bisphosphate 3-kinase catalytic subunit delta isoform (Homo sapiens, UniProt O00329, N836D), sequence (O00329 whole entry N836D, canonical isoform): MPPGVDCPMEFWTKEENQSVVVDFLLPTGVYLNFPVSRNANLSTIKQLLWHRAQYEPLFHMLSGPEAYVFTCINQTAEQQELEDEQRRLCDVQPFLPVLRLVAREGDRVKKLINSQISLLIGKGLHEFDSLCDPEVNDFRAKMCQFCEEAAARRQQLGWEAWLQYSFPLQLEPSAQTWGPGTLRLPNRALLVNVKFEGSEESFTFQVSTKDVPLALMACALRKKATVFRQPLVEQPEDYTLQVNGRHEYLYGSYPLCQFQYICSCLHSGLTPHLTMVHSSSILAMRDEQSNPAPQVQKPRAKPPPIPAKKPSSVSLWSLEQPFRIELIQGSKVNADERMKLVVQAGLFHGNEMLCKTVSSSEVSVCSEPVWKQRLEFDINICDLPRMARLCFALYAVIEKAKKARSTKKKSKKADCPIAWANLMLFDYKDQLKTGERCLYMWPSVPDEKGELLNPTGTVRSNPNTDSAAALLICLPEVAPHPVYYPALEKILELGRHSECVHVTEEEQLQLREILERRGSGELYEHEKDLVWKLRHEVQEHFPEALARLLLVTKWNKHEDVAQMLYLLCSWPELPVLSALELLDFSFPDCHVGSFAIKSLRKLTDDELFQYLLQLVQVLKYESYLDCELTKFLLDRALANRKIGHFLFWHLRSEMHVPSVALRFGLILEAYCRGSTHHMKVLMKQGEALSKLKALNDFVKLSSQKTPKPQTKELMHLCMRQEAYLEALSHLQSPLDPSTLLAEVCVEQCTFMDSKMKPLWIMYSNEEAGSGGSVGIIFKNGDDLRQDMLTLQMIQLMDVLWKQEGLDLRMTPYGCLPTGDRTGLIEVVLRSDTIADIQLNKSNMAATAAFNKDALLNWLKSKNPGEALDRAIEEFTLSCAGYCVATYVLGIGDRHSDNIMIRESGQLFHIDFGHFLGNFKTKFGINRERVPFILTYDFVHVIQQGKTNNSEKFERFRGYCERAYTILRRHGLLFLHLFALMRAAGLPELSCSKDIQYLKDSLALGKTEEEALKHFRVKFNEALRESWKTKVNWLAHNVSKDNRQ
Phosphatidylinositol 4,5-bisphosphate 3-kinase catalytic subunit gamma isoform, sequence (P48736 whole entry, canonical isoform): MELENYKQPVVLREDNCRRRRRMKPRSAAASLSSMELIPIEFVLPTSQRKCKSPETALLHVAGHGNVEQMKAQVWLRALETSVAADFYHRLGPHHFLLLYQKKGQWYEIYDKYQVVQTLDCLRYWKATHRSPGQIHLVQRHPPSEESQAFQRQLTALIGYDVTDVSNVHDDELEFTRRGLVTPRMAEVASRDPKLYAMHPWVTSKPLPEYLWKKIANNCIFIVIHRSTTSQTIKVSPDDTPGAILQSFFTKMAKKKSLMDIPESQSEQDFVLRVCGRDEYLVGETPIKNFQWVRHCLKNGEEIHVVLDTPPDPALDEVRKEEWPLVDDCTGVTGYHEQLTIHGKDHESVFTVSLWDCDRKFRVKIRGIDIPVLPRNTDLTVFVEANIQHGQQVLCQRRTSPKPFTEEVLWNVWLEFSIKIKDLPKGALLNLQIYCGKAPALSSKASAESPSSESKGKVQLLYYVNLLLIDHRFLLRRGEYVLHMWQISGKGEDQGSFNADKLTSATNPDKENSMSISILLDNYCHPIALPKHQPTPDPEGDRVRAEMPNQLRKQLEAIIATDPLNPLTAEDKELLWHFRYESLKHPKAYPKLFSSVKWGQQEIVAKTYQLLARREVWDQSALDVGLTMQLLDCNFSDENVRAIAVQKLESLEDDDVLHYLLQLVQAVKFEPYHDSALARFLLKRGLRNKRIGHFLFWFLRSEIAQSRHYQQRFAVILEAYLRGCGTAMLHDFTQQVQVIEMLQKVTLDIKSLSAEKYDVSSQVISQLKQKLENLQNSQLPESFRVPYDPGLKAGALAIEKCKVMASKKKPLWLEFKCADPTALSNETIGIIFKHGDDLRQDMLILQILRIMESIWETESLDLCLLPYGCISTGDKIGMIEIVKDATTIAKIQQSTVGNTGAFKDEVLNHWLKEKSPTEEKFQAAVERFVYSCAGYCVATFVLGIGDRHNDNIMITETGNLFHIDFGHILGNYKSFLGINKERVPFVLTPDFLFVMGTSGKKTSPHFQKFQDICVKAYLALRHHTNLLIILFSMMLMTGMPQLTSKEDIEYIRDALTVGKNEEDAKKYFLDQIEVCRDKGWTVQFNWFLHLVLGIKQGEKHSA

Compound	IC50 [1] [nM]	IC50 [2] [nM]	IC50 [3] [nM]	IC50 [4] [nM]	IC50 [5] [nM]	inhibition [6]	IC50 [7] [nM]	Ratio IC50 [8]	IC50 [9] [nM]	Ratio IC50 [10]
NC(=O)[C@H](Cc1ccccc1)NC(=O)[C@@H]1CCCN(c2nc(N3CCOCC3)nc(-n3c(C(F)F)nc4ccccc43)n2)C1	1720	908	263	1380	–	–	–	–	–	–
C[C@H](NC(=O)C1CCN(c2nc(N3CCOCC3)nc(-n3c(C(F)F)nc4ccccc43)n2)CC1)C(N)=O	207	123	40	434	–	–	–	–	–	–
O=C([C@H]1CCCCN1)N1CCN(c2nc(N3CCOCC3)nc(-n3c(C(F)F)nc4ccccc43)n2)CC1	775	2370	50	3590	36	–	–	–	–	–
N[C@H]1CC[C@@H](C(=O)N2CCN(c3nc(N4CCOCC4)nc(-n4c(C(F)F)nc5ccccc54)n3)CC2)CC1	3360	3900	143	> 10000	–	–	–	–	–	–
O=C([C@@H]1CCCCN1)N1CCN(c2nc(N3CCOCC3)nc(-n3c(C(F)F)nc4ccccc43)n2)CC1	59	2860	69	5530	24	–	–	–	–	–
O=C([C@H]1CCCN1)N1CCN(c2nc(N3CCOCC3)nc(-n3c(C(F)F)nc4ccccc43)n2)CC1	–	2610	–	5860	9	Active	–	–	–	–
O=C(CN1CCN(c2nc(N3CCOCC3)nc(-n3c(C(F)F)nc4ccccc43)n2)CC1)[C@H]1CCCN1	60	1770	52	6080	4	–	–	–	–	–
O=C(C[C@@H]1CCCN1)N1CCN(c2nc(N3CCOCC3)nc(-n3c(C(F)F)nc4ccccc43)n2)CC1	146	2050	22	5760	7	–	–	–	–	–
O=C([C@@H]1CCCN1)N1CCN(c2nc(N3CCOCC3)nc(-n3c(C(F)F)nc4ccccc43)n2)CC1	–	–	–	–	–	Active	–	–	–	–
CC(C)[C@H](NC(=O)C1CCN(c2nc(N3CCOCC3)nc(-n3c(C(F)F)nc4ccccc43)n2)CC1)C(N)=O	602	191	144	440	–	–	–	–	–	–
C[C@@H](NC(=O)C1CCN(c2nc(N3CCOCC3)nc(-n3c(C(F)F)nc4ccccc43)n2)CC1)C(N)=O	601	114	44	536	1900	Active	123	43	100	5
NC(=O)CNC(=O)[C@@H]1CCCN(c2nc(N3CCOCC3)nc(-n3c(C(F)F)nc4ccccc43)n2)C1	166	83	38	445	–	–	–	–	–	–
O=C(O)C1CCN(c2nc(N3CCOCC3)nc(-n3c(C(F)F)nc4ccccc43)n2)CC1	217	183	38	64	–	–	–	–	–	–
NC(=O)[C@H](Cc1ccccc1)NC(=O)C1CCN(c2nc(N3CCOCC3)nc(-n3c(C(F)F)nc4ccccc43)n2)CC1	513	190	44	708	–	–	–	–	–	–
O=C(O)[C@H]1CCCN(c2nc(N3CCOCC3)nc(-n3c(C(F)F)nc4ccccc43)n2)C1	215	40	42	231	–	–	–	–	–	–
NC(=O)CNC(=O)[C@H]1CCCN(c2nc(N3CCOCC3)nc(-n3c(C(F)F)nc4ccccc43)n2)C1	24	32	34	194	95	–	–	3	–	–
NC(=O)CNC(=O)C1CCN(c2nc(N3CCOCC3)nc(-n3c(C(F)F)nc4ccccc43)n2)CC1	329	98	66	496	171	–	–	2.6	–	–
NC(=O)[C@H](CO)NC(=O)C1CCN(c2nc(N3CCOCC3)nc(-n3c(C(F)F)nc4ccccc43)n2)CC1	162	67	29	521	–	–	–	–	–	–
O=C(O)[C@@H]1CCCN(c2nc(N3CCOCC3)nc(-n3c(C(F)F)nc4ccccc43)n2)C1	428	183	163	247	–	–	–	–	–	–
NC(=O)[C@H](Cc1ccccc1)NC(=O)[C@H]1CCCN(c2nc(N3CCOCC3)nc(-n3c(C(F)F)nc4ccccc43)n2)C1	342	358	57	1980	–	–	–	–	–	–

Source: ChEMBL document CHEMBL4431368, “Development of single and mixed isoform selectivity PI3Kδ inhibitors by targeting Asn836 of PI3Kδ” (Bioorg Med Chem Lett, 2016)
